The record followed here is US9120770B2, “Substituted pyridine and pyrazine compounds as PDE4 inhibitors” (DART NEUROSCIENCE (CAYMAN) LTD., priority 2013, dated 2015).

The target of this assay is PDE4D3 (Homo sapiens, UniProt Q08499).
Chain of PDE4D3 (Q08499 1-673 isoform Q08499-2): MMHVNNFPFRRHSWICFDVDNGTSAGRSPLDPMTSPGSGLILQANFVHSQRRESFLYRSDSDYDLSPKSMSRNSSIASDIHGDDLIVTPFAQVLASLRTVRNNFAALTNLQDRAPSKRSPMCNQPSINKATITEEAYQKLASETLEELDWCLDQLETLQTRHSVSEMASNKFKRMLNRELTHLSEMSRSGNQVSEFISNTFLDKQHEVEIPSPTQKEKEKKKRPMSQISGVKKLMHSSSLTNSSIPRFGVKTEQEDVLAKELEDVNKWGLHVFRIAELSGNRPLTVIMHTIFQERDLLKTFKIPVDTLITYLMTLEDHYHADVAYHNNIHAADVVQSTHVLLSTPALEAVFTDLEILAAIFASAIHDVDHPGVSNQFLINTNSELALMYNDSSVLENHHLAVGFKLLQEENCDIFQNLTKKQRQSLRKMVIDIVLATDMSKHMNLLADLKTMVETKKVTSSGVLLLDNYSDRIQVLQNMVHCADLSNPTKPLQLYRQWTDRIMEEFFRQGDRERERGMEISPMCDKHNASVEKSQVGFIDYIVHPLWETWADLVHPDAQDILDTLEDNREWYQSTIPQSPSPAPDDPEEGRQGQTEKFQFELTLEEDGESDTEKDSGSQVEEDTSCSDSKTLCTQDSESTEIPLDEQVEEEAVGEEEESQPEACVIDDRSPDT
In the case of `COc1ncc(Cn2cc(CO)cn2)cc1-c1cccc(OC(F)F)c1` [Example 272, [1-({5-[3-(Difluoromethoxy)phenyl]-6-methoxypyridin-3-yl}methyl)-1H-pyrazol-4-yl]methanol], the EC50 – broadly, the concentration giving half of the maximal effect – was below 100 nM. `COc1ncc(Cc2cnc(OC)c(-c3cccc(Cl)c3)n2)cn1` [Example 55, 3-(3-Chlorophenyl)-2-methoxy-5-[(2-methoxypyrimidin-5-yl)methyl]pyrazine] came in with a concentration giving a half-maximal response (EC50) below 100 nM.

Regarding `COc1ncc(Cc2ccc(NC(=O)NC3COC3)cc2)cc1-c1cccc(Cl)c1` [Example 31, 1-(4-{[5-(3-Chlorophenyl)-6-methoxypyridin-3-yl]methyl}phenyl)-3-(oxetan-3-yl)urea], the EC50 was in the range of 1000 to 10000 nM. As to `COc1ncc(Cn2cc(CO)nn2)nc1-c1cccc(Cl)c1` [Example 266, (1-{[6-(3-Chlorophenyl)-5-methoxypyrazin-2-yl]methyl}-1H-1,2,3-triazol-4-yl)methanol], the concentration for a half-maximal effect (EC50) is 100 to 1000 nM. As for `COc1ncc(Cc2cnc(C)nc2)cc1-c1cccc(Cl)c1` [Example 75, 5-{[5-(3-Chlorophenyl)-6-methoxypyridin-3-yl]methyl}-2-methylpyrimidine], the concentration giving a half-maximal response (EC50) lay in the range of 100 to 1000 nM. In the case of `CCOc1ncc(Cn2cnc(CO)n2)nc1-c1cccc(Cl)c1` [Example 212, (1-{[6-(3-Chlorophenyl)-5-ethoxypyrazin-2-yl]methyl}-1H-1,2,4-triazol-3-yl)methanol], the EC50 fell in the range of 100 to 1000 nM. The molecule `COc1ncc(Cn2cc(N)cn2)nc1-c1cccc(Cl)c1` [Example 236, 1-{[6-(3-Chlorophenyl)-5-methoxypyrazin-2-yl]methyl}-1H-pyrazol-4-amine] registered an EC50 above 10000 nM. For `COc1ncc(Cn2cnc(C3CC3)n2)nc1-c1cccc(Cl)c1` [Example 133, 3-(3-Chlorophenyl)-5-[(3-cyclopropyl-1H-1,2,4-triazol-1-yl)methyl]-2-methoxypyrazine], the EC50 was 1000 to 10000 nM.

`COC(=O)c1ncn(Cc2cnc(OC)c(-c3cccc(OC(F)F)c3)n2)n1` [Example 196, Methyl 1-({6-[3-(difluoromethoxy)phenyl]-5-methoxypyrazin-2-yl}methyl)-1H-1,2,4-triazole-3-carboxylate] registered an EC50 of 1000 to 10000 nM.

For `COc1ncc(Cn2cnc(CF)n2)nc1-c1cccc(Cl)c1` [Example 258, 3-(3-Chlorophenyl)-5-{[3-(fluoromethyl)-1H-1,2,4-triazol-1-yl]methyl}-2-methoxypyrazine], the EC50 was 1000 to 10000 nM. `COc1ncn(Cc2cnc(OC(F)F)c(-c3cccc(Cl)c3)c2)n1` [Example 214, 3-(3-Chlorophenyl)-2-(difluoromethoxy)-5-[(3-methoxy-1H-1,2,4-triazol-1-yl)methyl]pyridine] displayed an EC50 of 100 to 1000 nM.

In turn, `COc1ncc(Cc2ccc(N(C)C)nc2)cc1-c1cccc(Cl)c1` [Example 34, 5-{[5-(3-Chlorophenyl)-6-methoxypyridin-3-yl]methyl}-N,N-dimethylpyridin-2-amine] came in with an EC50 of 100 to 1000 nM.

In the case of `COc1cccc(-c2cc(Cn3cnc(N)n3)cnc2OC(F)F)c1` [Example 227, 1-{[6-(Difluoromethoxy)-5-(3-methoxyphenyl)pyridin-3-yl]methyl}-1H-1,2,4-triazol-3-amine], the EC50 is 100 to 1000 nM. `COc1ncc(Cn2cc(Cl)cn2)cc1-c1cccc(OC(F)F)c1` [Example 167, 5-[(4-Chloro-1H-pyrazol-1-yl)methyl]-3-[3-(difluoromethoxy)phenyl]-2-methoxypyridine] registered an EC50 of 100 to 1000 nM. In the case of `COc1ncc(Cc2ccc(C(N)=O)nc2)nc1-c1cccc(Cl)c1` [Example 90, 5-{[6-(3-Chlorophenyl)-5-methoxypyrazin-2-yl]methyl}pyridine-2-carboxamide], the half-maximal effective concentration (EC50) was 100 to 1000 nM. The molecule `CCOc1ncc(Cn2cc(CO)nn2)cc1-c1cccc(OC(F)F)c1` [Example 263, [1-({5-[3-(Difluoromethoxy)phenyl]-6-ethoxypyridin-3-yl}methyl)-1H-1,2,3-triazol-4-yl]methanol] yielded a 50% effective concentration (EC50) below 100 nM. On to `COc1ncc(Cc2cnc(C(N)=O)nc2)cc1-c1cccc(OC(F)F)c1` [Example 121, 5-({5-[3-(Difluoromethoxy)phenyl]-6-methoxypyridin-3-yl}methyl)pyrimidine-2-carboxamide], for which the EC50 lay in the range of 100 to 1000 nM. The value for `Cc1ccc(Cc2cnc(OC(F)F)c(-c3cccc(Cl)c3)c2)cn1` [Example 72, 3-(3-Chlorophenyl)-2-(difluoromethoxy)-5-[(6-methylpyridin-3-yl)methyl]pyridine] was below 100 nM. `COc1ncc(Cn2cncn2)cc1-c1cccc(C)n1` [Example 11, 2-Methoxy-3-(6-methylpyridin-2-yl)-5-(1H-1,2,4-triazol-1-ylmethyl)pyridine] yielded an EC50 above 10000 nM. The result for `COc1ncc(Cn2cnc(N)n2)cc1-c1cccc(OC2CC2)c1` [Example 225, 1-{[5-(3-Cyclopropoxyphenyl)-6-methoxypyridin-3-yl]methyl}-1H-1,2,4-triazol-3-amine] reads 1000 to 10000 nM; that for `NC(=O)c1cncc(Cc2cnc(OC(F)F)c(-c3cccc(Cl)c3)c2)c1` [Example 70, 5-{[5-(3-Chlorophenyl)-6-(difluoromethoxy)pyridin-3-yl]methyl}pyridine-3-carboxamide], 1000 to 10000 nM. The result for `CCOc1ncc(Cn2cnc(C(F)(F)F)n2)nc1-c1cccc(OC(F)F)c1` [Example 187, 3-[3-(Difluoromethoxy)phenyl]-2-ethoxy-5-{[3-(trifluoromethyl)-1H-1,2,4-triazol-1-yl]methyl}pyrazine] reads 1000 to 10000 nM.

`COc1cccc(-c2cc(Cn3cnc(N)n3)cnc2OC)c1` [Example 221, 1-{[6-Methoxy-5-(3-methoxyphenyl)pyridin-3-yl]methyl}-1H-1,2,4-triazol-3-amine] displayed an EC50 of 100 to 1000 nM.

Molecule `NC(=O)c1ncc(Cc2cnc(OC(F)F)c(-c3cccc(Cl)c3)c2)cn1` [Example 117, 5-{[5-(3-Chlorophenyl)-6-(difluoromethoxy)pyridin-3-yl]methyl}pyrimidine-2-carboxamide] returned an EC50 of 100 to 1000 nM. In turn, `FC(F)Oc1ncc(Cc2ccc(OCC3CC3)nc2)cc1-c1cccc(Cl)c1` [Example 102, 3-(3-Chlorophenyl)-5-{[6-(cyclopropylmethoxy)pyridin-3-yl]methyl}-2-(difluoromethoxy)pyridine] came in with an EC50 of 100 to 1000 nM. Molecule `COc1ncc(Cn2cc(C(=O)O)cn2)cc1-c1cccc(Cl)c1` [Example 270, 1-{[5-(3-Chlorophenyl)-6-methoxypyridin-3-yl]methyl}-1H-pyrazole-4-carboxylic acid] returned an EC50 above 10000 nM. The result for `CCOc1ncc(Cn2cnc(CO)n2)cc1-c1cccc(OC(F)F)c1` [Example 201, [1-({5-[3-(Difluoromethoxy)phenyl]-6-ethoxypyridin-3-yl}methyl)-1H-1,2,4-triazol-3-yl]methanol] reads below 100 nM; that for `CCOc1ncc(Cn2cnc(C(F)(F)F)n2)cc1-c1cccc(Cl)c1` [Example 152, 3-(3-Chlorophenyl)-2-ethoxy-5-{[3-(trifluoromethyl)-1H-1,2,4-triazol-1-yl]methyl}pyridine], 100 to 1000 nM. Take `O=C(O)c1ccc(Cc2cnc(OC(F)F)c(-c3cccc(Cl)c3)c2)cc1` [Example 280, 4-{[5-(3-Chlorophenyl)-6-(difluoromethoxy)pyridin-3-yl]methyl}benzoic acid]: the half-maximal effective concentration (EC50) lay in the range of 1000 to 10000 nM.

With `COC(=O)c1ncn(Cc2cnc(OC)c(-c3cccc(Cl)c3)c2)n1` [Example 141, Methyl 1-{[5-(3-chlorophenyl)-6-methoxypyridin-3-yl]methyl}-1H-1,2,4-triazole-3-carboxylate], the EC50 lay within 100 to 1000 nM. In the case of `CCOc1ncc(Cn2cnc(CF)n2)nc1-c1cccc(OC(F)F)c1` [Example 257, 3-[3-(Difluoromethoxy)phenyl]-2-ethoxy-5-{[3-(fluoromethyl)-1H-1,2,4-triazol-1-yl]methyl}pyrazine], the EC50 is 1000 to 10000 nM.

With `FC(F)Oc1ncc(Cc2cn[nH]c2)cc1-c1cccc(Cl)c1` [Example 28, 5-((1H-Pyrazol-4-yl)methyl)-3-(3-chlorophenyl)-2-(difluoromethoxy)pyridine], the EC50 was below 100 nM. With `CCOc1ncc(Cc2cnc(N)nc2)nc1-c1cccc(OC(F)F)c1` [Example 104, 5-({6-[3-(Difluoromethoxy)phenyl]-5-ethoxypyrazin-2-yl}methyl)pyrimidin-2-amine], the EC50 was below 100 nM. For the molecule `CNC(c1ccc(F)cc1)c1cnc(OC)c(-c2cccc(Cl)c2)c1` (centres unmarked) [Example 17, {[5-(3-Chlorophenyl)-6-methoxypyridin-3-yl](4-fluorophenyl)methyl}(methyl)amine], the EC50 was in the range of 1000 to 10000 nM.

`CCOc1cccc(-c2cc(Cn3cc(CO)nn3)cnc2OC(F)F)c1` [Example 264, (1-((6-(Difluoromethoxy)-5-(3-ethoxyphenyl)pyridin-3-yl)methyl)-1H-1,2,3-triazol-4-yl)methanol] had an EC50 below 100 nM. The result for `CCOc1ncc(Cn2cnc(N)n2)cc1-c1ccnc(OC(F)F)c1` [Example 230, 1-({5-[2-(Difluoromethoxy)pyridin-4-yl]-6-ethoxypyridin-3-yl}methyl)-1H-1,2,4-triazol-3-amine] reads below 100 nM.

As for `COc1ncc(Cc2cnc(C(N)=O)nc2)nc1-c1cccc(OC(F)F)c1` [Example 125, 5-({6-[3-(Difluoromethoxy)phenyl]-5-methoxypyrazin-2-yl}methyl)pyrimidine-2-carboxamide], the concentration giving a half-maximal response (EC50) was below 100 nM. Regarding `CCOc1ncc(Cn2ncnc2C(F)(F)F)cc1-c1cccc(OC(F)F)c1` [Example 164, 3-[3-(Difluoromethoxy)phenyl]-2-ethoxy-5-{[5-(trifluoromethyl)-1H-1,2,4-triazol-1-yl]methyl}pyridine], the EC50 fell in the range of 100 to 1000 nM. The molecule `COc1ncc(Cn2cncn2)cc1-c1cc(F)cc(F)c1` [Example 139, 3-(3,5-Difluorophenyl)-2-methoxy-5-(1H-1,2,4-triazol-1-ylmethyl)pyridine] registered an EC50 of 100 to 1000 nM.

Turning to `COc1cccc(-c2cc(Cn3cncn3)cnc2OC)n1` [Example 4, 2-Methoxy-3-(6-methoxypyridin-2-yl)-5-(1H-1,2,4-triazol-1-ylmethyl)pyridine], the EC50 was above 10000 nM. `COc1ncc(Cc2ccc(N)nc2)cc1-c1cccc(Cl)c1` [Example 30, 5-{[5-(3-Chlorophenyl)-6-methoxypyridin-3-yl]methyl}pyridin-2-amine]: the half-maximal effective concentration (EC50) was below 100 nM.
